In patent US20040074621A1, “Method for reducing slime production and mixture making the same” (Yuen Foong Yu Paper MFG Co., Ltd., priority 2002, published 2004):

Tests used:
[1] = test system: culture isolated from the slime; assay: The effect of the antagonistic and the dispersing agent on the formation of the deposit; type: cell-based; conditions: after 7 days
Protocol: Cultures which are isolated from the slime are cultivated in a NB cultivation liquid for 21-24 hours. Then, 1 mL culture liquids of the isolated cultures are centrifuged in 15000 rpm for 1 min and the supernatants thereof are removed. All the isolated cultures are re-suspended by adding 1 mL sterile water, and then each re-suspended culture is inoculated into a flask which already contains sterile white water 100 mL and 3 g LBKP pulp. Later, different dispersing agents are added into different flasks of each kind of culture to obtain different mixtures. The mixtures are cultivated in an incubate shaker at 40° C. 70 rpm. After being mixture cultivated for 3 hours, 3 mL antagonistic C5 (Streptomyces bikiniensis) which has been amounted to 10^7/mL after being cultivated for 24 hours is added thereinto to obtain another mixture. The mixture are cultivated in the incubate shaker again at 40° C., 70 rpm. After 7 days, the production of the deposit is recorded. The whole experiment is separated into six groups. […] There are four experimental group: 3: Only incubate the culture isolated from the slime without incubating the antagonistic C5; 4: Incubate both the culture isolated from the slime and the antagonistic C5; 5: Incubate the culture isolated from the slime and the dispersing agent; and 6: Incubate the culture isolated from the slime, the dispersing agent, and the antagonistic C5. The groups described above are double checked and all experiments are repeated at least once. Deposit % is calculated by the formula as follows: [formula]

[2] = test system: culture isolated from the slime; assay: The track experiment of periodically adding the antagonistic; type: cell-based
Protocol: Cultures which are isolated from the slime are cultivated in a NB cultivation liquid for 21-24 hours. Then, 1 mL culture liquids of the isolated cultures are centrifuged in 15000 rpm for 1 min and the supernatants thereof are removed. All the isolated cultures are re-suspended by adding 1 mL sterile water, and then each re-suspended culture is inoculated into a flask which already contains sterile white water 100 mL and 3 g LBKP pulp. Later, different dispersing agents are added into different flasks of each kind of culture to obtain different mixtures. The mixtures are cultivated in an incubate shaker at 40° C. 70 rpm. After being mixture cultivated for 3 hours, 3 mL antagonistic C5 (Streptomyces bikiniensis) which has been amounted to 10^7/L after being cultivated for 24 hours is added thereinto to obtain another mixture. The mixture are cultivated in the incubate shaker again at 40° C. 70 rpm. […] Then, the final deposit amount after another 7 days (total 14 days) is also recorded. The whole experiment is separated into four groups. […] There are two experimental group: 3: Only incubate the culture isolated from the slime without incubating the antagonistic C5; and 4: Incubate both the culture isolated from the slime and the antagonistic C5. The groups described above are double checked and all experiments are repeated at least once. Deposit % is calculated by the formula as follows: [formula]

[3] = isolated culture in sterile white water 100 mL + 3 g LBKP pulp, 40° C. 70 rpm, culture isolated from slime alone = 100%
[4] = contrast group: only antagonistic C5, without the culture isolated from the slime

Substance | Deposit (%) of the slime [1, 3] | Deposit (%) of the slime [1, 4] | Deposit % (Day 7) [2, 4] | Deposit % (Day 14) [2, 4] | Deposit % (Day 14) ([2]; culture isolated from slime + antagonistic C5, antagonistic C5 re-added at Day 7) | Deposit % (Day 14) ([2]; culture isolated from slime + antagonistic C5 added once, not re-added, culture alone = 100%) | Deposit % (Day 7) ([2]; culture isolated from slime + antagonistic C5 added once, culture alone = 100%)
Di-alkyl sulfosuccinate [dispersing agent S100] | 53% | – | – | – | – | – | –
Streptomyces bikiniensis [Antagonistic C5] | 53.0% | 24.7% | 31.0% | 35.0% | 28% | 87% | 29%
